According to patent publication US7355001B2, “Organic anion transport protein TCH229” (Takeda Pharmaceutical Company Limited, priority 2002, dated 2008):

Columns and labels:
human TCH229 [1] = experiment: Expression of human TCH229 gene in HRCE stimulated with stimulants (TaqMan PCR); format: cell-based; conditions: stimulant 10 ng/ml, 0.5-8 hours after addition
Procedure: (§1) (2) Preparation of cDNA from Normal Human Cells Stimulated with Various Stimulants a) Renal proximal tubular epithelial cell (RPTEC) and human renal cortical epithelial cell (HRCE) (both available from Cambrex BioScience Walkersvill) were plated on a 24-well collagen-coated plate in 1×10^5 cells/well and then cultured overnight, and after the medium was replaced by […] (T3)-free Bullet Kit REGM (BIO WHITTAKER), the cells were cultured for additional 30 minutes. b) As stimulants, TGF-β1 (Wako Pure Chemical Industries, Ltd.), TNF-α (Genzyme), IL-1β (Genzyme), IL-6 (Genzyme) and PMA (Wako Pure Chemical Industries, Ltd.) were used. A solution was prepared by diluting each of these 5 stimulants at the final concentration of 10 ng/ml with T3-free Bullet Kit REGM (BIO WHITTAKER). c) Just after the culture supernatants of the RPTEC and HRCE in the above item a) were removed, the solution prepared in the above item b) was added in a volume of 500 μl/well, and the cells were cultured. As the control, a mixture of the 5 stimulants dissolved in a solvent was diluted at the same ratio as the stimulants with T3-free Bullet Kit REGM (BIO WHITTAKER) to prepare a solution, and 500 μl of the solution was added to each well of RPTEC and HRCE, and the cells were cultured. d) 0.5, 1, 2, 4, 6 and 8 hours after addition of the stimulants, the cells were recovered respectively, and total RNA was prepared by using RNeasy Mini Kit (Quiagen). The total RNA thus prepared was subjected to reverse transcription reaction using TaqMan Reverse Transcription Reagents (manufactured by Applied Biosystems, Inc.) to prepare the cDNA. (3) Analysis of Expression of Human TCH229 Gene in Commercially Available Normal Human Cells
(§2) The expression level (copy number) of human TCH229 in the cDNAs prepared from the normal human cells and the PRTEC and HRCE stimulated with the stimulants was measured by TaqMan PCR with the 2 primer DNAs used in Example 4 (that is, primer TMF (SEQ ID NO: 19) and primer TMR (SEQ ID NO: 20)) and TaqMan probe P1 (SEQ ID NO: 21). For the cDNAs prepared respectively from the normal human cells and the PRTEC and HRCE stimulated with the stimulants, the expression level (copy number) of ribosomal RNA (18S) was assayed by using Eukaryotic 18S rRNA Pre-Developed TaqMan Assay Reagents (manufactured by Applied Biosystems, Inc.), and the expression level (copy number) of human glyceraldehyde-3-phosphate dehydrogenase (GAPDH) was also assayed by using human GAPD (GAPDH) (manufactured by Applied Biosystems, Inc.). […]

human TCH229 [2] = experiment: Expression of human TCH229 gene in RPTEC stimulated with stimulants (TaqMan PCR); format: cell-based; conditions: stimulant 10 ng/ml, 0.5-8 hours after addition
Procedure: as §1, §2

Compound	fluctuation of expression of human TCH229 (mRNA, relative to human GAPDH) as compared with the control (human TCH229 [1])	fluctuation of expression of human TCH229 (mRNA, relative to human GAPDH) as compared with the control (human TCH229 [2])
CCCCCCCCCCCCCC(=O)O[C@@H]1[C@@H](C)[C@@]2(O)[C@@H](C=C(CO)C[C@]3(O)C(=O)C(C)=C[C@@H]23)[C@@H]2C(C)(C)[C@]12OC(C)=O [PMA]	decreased depending on culture time	decreased depending on culture time
IL-1β: stimulant, IL-1β (Genzyme)	decreased depending on culture time	decreased depending on culture time
TGF-β1: stimulant, TGF-β1 (Wako Pure Chemical Industries, Ltd.)	decreased depending on culture time	decreased depending on culture time
TNF-α	decreased depending on culture time	decreased depending on culture time
